Reference: paper PMC6520365, “Structural and functional characterization of the PDZ domain of the human phosphatase PTPN3 and its interaction with the human papillomavirus E6 oncoprotein” (Scientific Reports, 2019)
Ends that are not written are not given here.

Biological target: T1, PTPN3-PDZ (Homo sapiens, UniProt P26045)
T1 construct: GST (followed by a TEV cleavage site) (N, cleaved yes); made in house; host or cells: E. coli BL21 Star (DE3)
T1 sequence (P26045 510-582 limits assumed): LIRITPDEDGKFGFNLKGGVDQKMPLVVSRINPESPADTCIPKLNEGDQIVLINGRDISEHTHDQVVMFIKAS
Test: NMR titration (1H,15N HSQC chemical shift perturbation) of PBM peptide affinity for PTPN3-PDZ
Assay type: binding
Method: The affinities of HPV16E6 PBM, HPV18E6 PBM, p38γ PBM and HBVc PBM for PTPN3-PDZ were measured by NMR titration. We followed ^1H, ^15N chemical shift perturbations of PTPN3-PDZ signals in the ^1H-^15N HSQC spectra as a function of increasing concentrations of the PBM peptide to determine the dissociation constant (KD) (Fig. S1). […] The KD values are all in the same tenth-of-micromolar range for the viral PBMs and are close to the one of the cellular partner p38γ. […]
Briefly, the unlabeled peptides (stock solutions ranging from 2.8 to 5.7 mM) at pH 7.5 were added stepwise in a sample initially containing 240–260 μL of ^15N-labeled PTPN3-PDZ at a concentration of 95 or 149 μM. A series of ^1H, ^15N HSQC spectra was recorded for the different titration points. Chemical shift changes were calculated using the free PTPN3-PDZ signals as a reference. Chemical shift differences in the cross-peaks by titration were calculated using the relationship: Δδ = ((ΔδHN)^2 + (0.15 × ΔδN)^2)^0.5 where ΔδHN and ΔδN are changes in the ^1H and ^15N chemical shifts in ppm, respectively. […]

**Q.** With RQERLQRRETQV [HPV18E6 PBM] as the sequence, how does the Kd read?
**A.** 37 ± 20 µM
